In patent US12673026B2, “Liposomal compositions and methods of use thereof for improved stability, bioavailability and sustained release” (SpecNova LLC, priority 2023, dated 2026):
Blank lines part the entries; values can stand above or below the molecule they belong to.

Assays:
[1] = Quercetin Caco-2 permeability; assay type: in vitro ADME, Human; conditions: human; Caco-2 passage 28; 20 μM in HBSS; apical to basolateral
Protocol: (§1) The study was performed using Caco-2 cells at a passage number of 28 seeded on a 96-well Transwell plates. Permeability was studied at a concentration of 20 μM. Compounds were solubilized in HBSS and added to apical compartment of the Transwell plate and blank buffer on basolateral side. FIG. 17 provides a visual summary of this process.

[2] = system: Caco-2 cells; experiment: Quercetin Caco-2 permeability; assay type: in vitro ADME, Human; conditions: Caco-2 passage 28, A-->B
Protocol: as §1

[3] = Berberine chloride Caco-2 permeability; assay type: in vitro ADME, Human; conditions: human; Caco-2 passage 38; formulation: supernatant of 1 mg/mL in HBSS; pure compound 10 μM; apical to basolateral
Protocol: (§2) The study was performed using Caco-2 cells at a passage number of 38 seeded on a 24-well transwell plate. […] Instead, the formulation was added to the HBSS buffer at a concentration of 1 mg/mL, vortexed, and centrifuged for 15 min at 10,000 G-force. The supernatant was used for permeability assessment. For pure compound, the permeability study was performed at 10 μM final concentration. Compound solutions were added to the apical compartments of the transwell and blank buffer on the basolateral side. FIG. 9 provides a visual summary of this process.

[4] = system: Caco-2 cells; experiment: Berberine chloride Caco-2 permeability; assay type: in vitro ADME, Human; conditions: Caco-2 passage 38, A --> B
Protocol: as §2

[5] = Randomized, double-blind, placebo-controlled crossover trial: plasma and leukocyte vitamin C concentration after single dose; assay type: in vivo, human; conditions: single 500 mg dose; p<0.001
Protocol: Venous blood samples were collected 0, 0.5-, 1-, 1.5-, 2-, 3-, 4-, 6-, 8-, 12-, and 24-hours after ingestion and were analyzed for plasma and leukocyte vitamin C concentration.

[6] = L-carnosine stability in simulated gastric and intestinal fluids; assay type: physicochemical; conditions: for % Remaining: 10 μM, 37.0° C.
Protocol: Three fluids were simulated: fasted (pH 1.2) and fed (pH 3.5) simulated gastric fluid (SGF) and simulated intestinal fluid (SIF) (pH 6.8). […] A zero time point was taken after adding the appropriate stock to each fluid (N=2) and mixed by pipette. Time points were then taken at 5, 10, 15, 30, 60, 90, and 120 minutes. These were quenched with ACN and kept on ice. The samples were then added to 50% ACN in […] ammonium acetate buffer (pH=3.6) with Verapamil for Internal Standard (IS) and filtered before analysis.
Two concentrations of working stocks were made at 5000 ng/ml and 200 ng/ml. In Table 12, diluent is 50% ACN in […] ammonium acetate buffer (pH=3.6). The total analytical volume was 200 μL for all standards and samples. Six sets of QCs were used along with the samples and seven calibration standards. All were analyzed by UPLC-MS/MS on the same day as preparation.

[7] = Carnosine permeability across Caco-2 cells; assay type: in vitro ADME, Human; conditions: human; Caco-2 passage 26; 20 μM in HBSS; apical to basolateral
Protocol: (§3) The study was performed using Caco-2 cells at a passage number of 26 seeded on a 24-well transwell plates. The permeability of carnosine was studied at a concentration of 20 μM. Compounds were solubilized in HBSS and added to apical compartment of transwells and blank buffer on basolateral side.

[8] = system: Caco-2 cells; experiment: Carnosine permeability across Caco-2 cells; assay type: in vitro ADME, Human; conditions: Caco-2 passage 26, A-->B
Protocol: as §3

[9] = CoQ10 Caco-2 permeability; assay type: in vitro ADME, Human; conditions: human; Caco-2 passage 38; formulation: supernatant of 1 mg/mL in HBSS; pure compound 10 μM; apical to basolateral
Protocol: as §2

[10] = system: Caco-2 cells; experiment: CoQ10 Caco-2 permeability; assay type: in vitro ADME, Human; conditions: Caco-2 passage 38, A --> B
Protocol: as §2

Papp A→B at 20 μM [1]: 8.83 ± 0.17 ×10⁻⁶ cm/s
Permeability Class (High/Low) [2]: High
SMILES: O=c1c(O)c(-c2ccc(O)c(O)c2)oc2cc(O)cc(O)c12 [USP Quercetin, quercetin]

Papp A→B at 10 μM [3]: 2.17 ± 0.17 ×10⁻⁶ cm/s
Permeability Class (High/Low) [4]: Low
SMILES: COc1ccc2cc3[n+](cc2c1OC)CCc1cc2c(cc1-3)OCO2 [Sigma Aldrich Berberine Chloride, Berberine Chloride]

Cmax and AUC0-24 in plasma and in leukocytes compared to placebo [5]: significantly greater
SMILES: O=C1O[C@H]([C@@H](O)CO)C(O)=C1O [VIT C, L-Ascorbic acid]

% Remaining ([6]; Fasted SGF (pH 1.2), 0 minutes): 100%
% Remaining ([6]; Fasted SGF (pH 1.2), 5 minutes): 100.3%
% Remaining ([6]; Fasted SGF (pH 1.2), 10 minutes): 95.5%
% Remaining ([6]; Fasted SGF (pH 1.2), 15 minutes): 97.5%
% Remaining ([6]; Fasted SGF (pH 1.2), 30 minutes): 94%
% Remaining ([6]; Fasted SGF (pH 1.2), 60 minutes): 99.4%
% Remaining ([6]; Fasted SGF (pH 1.2), 90 minutes): 101.5%
% Remaining ([6]; Fasted SGF (pH 1.2), 120 minutes): 96.5%
% Remaining ([6]; Fed SGF (pH 3.5), 0 minutes): 100%
% Remaining ([6]; Fed SGF (pH 3.5), 5 minutes): 103.9%
% Remaining ([6]; Fed SGF (pH 3.5), 10 minutes): 97.6%
% Remaining ([6]; Fed SGF (pH 3.5), 15 minutes): 91.9%
% Remaining ([6]; Fed SGF (pH 3.5), 30 minutes): 96.5%
% Remaining ([6]; Fed SGF (pH 3.5), 60 minutes): 102.2%
% Remaining ([6]; Fed SGF (pH 3.5), 90 minutes): 97.4%
% Remaining ([6]; Fed SGF (pH 3.5), 120 minutes): 97.4%
% Remaining ([6]; SIF (pH 6.8), 0 minutes): 100%
% Remaining ([6]; SIF (pH 6.8), 5 minutes): 96.9%
% Remaining ([6]; SIF (pH 6.8), 10 minutes): 91%
% Remaining ([6]; SIF (pH 6.8), 15 minutes): 89%
% Remaining ([6]; SIF (pH 6.8), 30 minutes): 95.8%
% Remaining ([6]; SIF (pH 6.8), 60 minutes): 103%
% Remaining ([6]; SIF (pH 6.8), 90 minutes): 100.1%
% Remaining ([6]; SIF (pH 6.8), 120 minutes): 99.1%
stability in SGF and SIF ([6]; over 120 minutes): stable
Papp A→B at 20 μM [7]: 3.05 ± 0.62 ×10⁻⁶ cm/s
Permeability Class (High/Low) [8]: Low
SMILES: NCCC(=O)N[C@@H](Cc1cnc[nH]1)C(=O)O [Carnosine, L-carnosine]

Papp A→B at 10 μM [9]: 0.2 ± 0.13 ×10⁻⁶ cm/s
Permeability Class (High/Low) [10]: Low
SMILES: COC1=C(OC)C(=O)C(C/C=C(\C)CC/C=C(\C)CC/C=C(\C)CC/C=C(\C)CC/C=C(\C)CC/C=C(\C)CC/C=C(\C)CC/C=C(\C)CC/C=C(\C)CCC=C(C)C)=C(C)C1=O [CoQ10 Reference Standard, CoQ10]
